Common to all, as to format: binding
Experiment [1] has as its target T1, Geobacillus kaustophilus Old Yellow Enzyme (GkOYE, YP—148185.1) mutant H164A (Geobacillus kaustophilus, UniProt Q5KXG9, H164A).
T1 construct: made in house; host or cells: E. coli DH5alpha
The experiment in a line: Titration of GkOYE mutant H164A with pHBA.
Excerpt: (§1) Mutants of GkOYE (Y28F, H164A, H167A; H164A/H167A; 2 clones each) were transformed into and expressed in E. coli DH5alpha.

Experiment [2] deals with T2, Geobacillus kaustophilus Old Yellow Enzyme (GkOYE, YP—148185.1) mutant Y28F (Geobacillus kaustophilus, UniProt Q5KXG9, Y28F).
T2 construct: made in house; host or cells: E. coli DH5alpha
T2 sequence (Q5KXG9 whole entry Y28F): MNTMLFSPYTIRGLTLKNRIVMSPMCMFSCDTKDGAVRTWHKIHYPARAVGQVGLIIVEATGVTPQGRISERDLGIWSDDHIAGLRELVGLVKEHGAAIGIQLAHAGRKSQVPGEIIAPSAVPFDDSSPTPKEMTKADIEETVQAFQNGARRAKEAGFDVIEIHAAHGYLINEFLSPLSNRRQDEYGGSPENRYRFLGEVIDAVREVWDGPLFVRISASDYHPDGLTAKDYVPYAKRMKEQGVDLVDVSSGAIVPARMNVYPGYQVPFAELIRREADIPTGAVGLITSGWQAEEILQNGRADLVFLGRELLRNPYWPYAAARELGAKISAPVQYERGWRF
The experiment in a line: Titration of GkOYE mutant Y28F with pHBA.
Excerpt: as §1

Experiment [3] addresses T3, Geobacillus kaustophilus Old Yellow Enzyme (GkOYE, YP—148185.1) mutant H167A (Geobacillus kaustophilus, UniProt Q5KXG9, H167A).
T3 construct: made in house; host or cells: E. coli DH5alpha
The experiment in a line: Titration of GkOYE mutant H167A with pHBA.
Excerpt: as §1

In experiment [4] the target is T4, Geobacillus kaustophilus Old Yellow Enzyme (GkOYE, YP—148185.1), wild type (Geobacillus kaustophilus, UniProt Q5KXG9).
T4 construct: made in house; host or cells: E. coli DH5α
T4 sequence (Q5KXG9 1-340): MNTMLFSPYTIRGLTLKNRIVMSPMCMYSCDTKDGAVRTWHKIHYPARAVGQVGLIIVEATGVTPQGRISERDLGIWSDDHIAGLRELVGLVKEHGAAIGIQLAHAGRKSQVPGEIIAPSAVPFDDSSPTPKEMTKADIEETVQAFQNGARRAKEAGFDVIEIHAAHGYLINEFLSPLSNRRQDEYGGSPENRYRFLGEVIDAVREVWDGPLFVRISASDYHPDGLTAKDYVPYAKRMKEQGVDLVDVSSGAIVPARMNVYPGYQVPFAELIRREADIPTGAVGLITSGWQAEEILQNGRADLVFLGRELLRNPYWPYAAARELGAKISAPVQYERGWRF
The experiment in a line: Titration of wild type GkOYE with pHBA.
Excerpt: as §1

The target in experiment [5] is T5, Geobacillus kaustophilus Old Yellow Enzyme (GkOYE, YP—148185.1) mutant H164A/H167A (Geobacillus kaustophilus, UniProt Q5KXG9, H164A/H167A).
T5 construct: made in house; host or cells: E. coli DH5alpha
T5 sequence (Q5KXG9 whole entry H164A/H167A): as the sequence (Q5KXG9 whole entry Y28F) above, with F28Y, H164A, H167A counted along it
The experiment in a line: Titration of GkOYE double mutant H164A/H167A with pHBA.
Excerpt: as §1

T1 sequence (Q5KXG9 whole entry H164A): as the sequence (Q5KXG9 whole entry Y28F) above, with F28Y, H164A counted along it
T3 sequence (Q5KXG9 whole entry H167A): as the sequence (Q5KXG9 whole entry Y28F) above, with F28Y, H167A counted along it

With `O=Cc1ccc(O)cc1` [pHBA], the Kd (in general, the equilibrium constant for the complex coming apart) in experiment [1] was 1000 to 10000 µM; in experiment [2] it was 1000 to 10000 µM; in experiment [3], 1000 to 10000 µM; in experiment [4], 3.1 µM; in experiment [5], 1000 to 10000 µM.

(Values after patent US20090117613A1, “Method for redox reaction using an old yellow enzyme” (priority 2007, published 2009).)
